Results from ChEMBL document CHEMBL4507259 (2021).

What was measured:
[1] = biological target: T1, Alpha-1A adrenergic receptor (Homo sapiens) (UniProt P35348); assay: alpha 1A (h) CEREP ligand profiling; conditions: filed as antagonist, Compound concentration 10.0 uM
T1 sequence (whole entry): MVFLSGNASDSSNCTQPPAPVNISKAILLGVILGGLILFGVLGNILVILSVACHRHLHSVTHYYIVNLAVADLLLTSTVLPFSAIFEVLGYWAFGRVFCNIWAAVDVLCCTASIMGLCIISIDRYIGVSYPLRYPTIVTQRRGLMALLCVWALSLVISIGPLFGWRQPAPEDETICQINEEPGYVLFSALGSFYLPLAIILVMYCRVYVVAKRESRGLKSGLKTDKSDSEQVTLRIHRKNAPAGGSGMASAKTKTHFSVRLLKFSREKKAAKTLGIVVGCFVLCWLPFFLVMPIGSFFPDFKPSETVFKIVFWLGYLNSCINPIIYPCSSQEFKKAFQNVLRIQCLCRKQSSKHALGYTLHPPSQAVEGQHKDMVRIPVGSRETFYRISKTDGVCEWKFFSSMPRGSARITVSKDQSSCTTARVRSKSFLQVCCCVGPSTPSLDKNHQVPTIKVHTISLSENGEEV

[2] = biological target: T2, Alpha-1B adrenergic receptor (Homo sapiens) (UniProt P35368); assay: alpha 1B (h) CEREP ligand profiling; conditions: filed as antagonist, Compound concentration 10.0 uM
T2 sequence (whole entry): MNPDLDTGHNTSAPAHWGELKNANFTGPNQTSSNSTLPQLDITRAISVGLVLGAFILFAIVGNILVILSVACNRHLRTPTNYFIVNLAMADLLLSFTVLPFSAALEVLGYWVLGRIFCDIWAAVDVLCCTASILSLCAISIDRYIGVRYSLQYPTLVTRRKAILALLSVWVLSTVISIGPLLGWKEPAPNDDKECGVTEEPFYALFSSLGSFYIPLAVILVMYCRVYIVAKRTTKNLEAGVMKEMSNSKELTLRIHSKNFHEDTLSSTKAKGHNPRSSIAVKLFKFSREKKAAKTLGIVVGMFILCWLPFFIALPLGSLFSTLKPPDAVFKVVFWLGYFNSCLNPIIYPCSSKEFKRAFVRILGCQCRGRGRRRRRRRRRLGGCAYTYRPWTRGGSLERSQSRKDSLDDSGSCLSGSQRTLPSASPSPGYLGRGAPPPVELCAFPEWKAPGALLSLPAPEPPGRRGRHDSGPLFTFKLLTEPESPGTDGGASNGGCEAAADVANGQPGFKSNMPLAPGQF

[3] = system: Tyrosine-protein kinase ABL1 (Homo sapiens), P00519 [F317I]; conditions: Compound concentration 1000.0 nM
[4] = biological target: Tyrosine-protein kinase receptor UFO (Homo sapiens) (UniProt P30530); conditions: Compound concentration 1000.0 nM
[5] = biological target: Cytoplasmic tyrosine-protein kinase BMX (Homo sapiens) (UniProt P51813); conditions: Compound concentration 1000.0 nM
[6] = biological target: Calcium/calmodulin-dependent protein kinase type II subunit beta (Homo sapiens) (UniProt Q13554); conditions: Compound concentration 1000.0 nM
[7] = biological target: Cyclin-dependent kinase 4 (Homo sapiens) (UniProt P11802); conditions: Compound concentration 1000.0 nM
Chain of Cyclin-dependent kinase 4 (Homo sapiens) (P11802 whole entry): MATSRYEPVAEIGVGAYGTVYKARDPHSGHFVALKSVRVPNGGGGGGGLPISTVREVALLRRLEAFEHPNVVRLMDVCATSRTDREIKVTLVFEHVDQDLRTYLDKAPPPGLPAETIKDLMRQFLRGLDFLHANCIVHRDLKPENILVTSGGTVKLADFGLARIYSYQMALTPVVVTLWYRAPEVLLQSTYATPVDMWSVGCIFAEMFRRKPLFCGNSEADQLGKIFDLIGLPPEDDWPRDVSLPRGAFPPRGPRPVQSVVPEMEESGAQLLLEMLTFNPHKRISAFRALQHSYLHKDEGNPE

[8] = biological target: Cyclin-dependent kinase 8 (Homo sapiens) (UniProt P49336); conditions: Compound concentration 1000.0 nM
[9] = biological target: Dual specificity protein kinase CLK4 (Homo sapiens) (UniProt Q9HAZ1); conditions: Compound concentration 1000.0 nM
[10] = biological target: Macrophage colony-stimulating factor 1 receptor (Homo sapiens) (UniProt P07333); conditions: Compound concentration 1000.0 nM
[11] = biological target: Casein kinase I isoform alpha (Homo sapiens) (UniProt P48729); conditions: Compound concentration 1000.0 nM
[12] = system: Epidermal growth factor receptor (Homo sapiens), P00533 [L861Q]; conditions: Compound concentration 1000.0 nM
[13] = biological target: Ephrin type-B receptor 1 (Homo sapiens) (UniProt P54762); conditions: Compound concentration 1000.0 nM
[14] = biological target: Fibroblast growth factor receptor 1 (Homo sapiens) (UniProt P11362); conditions: Compound concentration 1000.0 nM
[15] = system: Receptor-type tyrosine-protein kinase FLT3 (Homo sapiens), P36888 [D835H]; conditions: Compound concentration 1000.0 nM
[16] = system: Receptor-type tyrosine-protein kinase FLT3 (Homo sapiens), P36888 [UNDEFINED MUTATION]; conditions: Compound concentration 1000.0 nM
[17] = biological target: Homeodomain-interacting protein kinase 4 (Homo sapiens) (UniProt Q8NE63); conditions: Compound concentration 1000.0 nM
[18] = biological target: Inhibitor of nuclear factor kappa-B kinase subunit epsilon (Homo sapiens) (UniProt Q14164); conditions: Compound concentration 1000.0 nM
[19] = system: Leucine-rich repeat serine/threonine-protein kinase 2 (Homo sapiens), Q5S007 [G2019S]; conditions: Compound concentration 1000.0 nM
[20] = biological target: Mitogen-activated protein kinase kinase kinase 1 (Homo sapiens) (UniProt Q13233); conditions: Compound concentration 1000.0 nM
Chain of Mitogen-activated protein kinase kinase kinase 1 (Homo sapiens) (Q13233 whole entry): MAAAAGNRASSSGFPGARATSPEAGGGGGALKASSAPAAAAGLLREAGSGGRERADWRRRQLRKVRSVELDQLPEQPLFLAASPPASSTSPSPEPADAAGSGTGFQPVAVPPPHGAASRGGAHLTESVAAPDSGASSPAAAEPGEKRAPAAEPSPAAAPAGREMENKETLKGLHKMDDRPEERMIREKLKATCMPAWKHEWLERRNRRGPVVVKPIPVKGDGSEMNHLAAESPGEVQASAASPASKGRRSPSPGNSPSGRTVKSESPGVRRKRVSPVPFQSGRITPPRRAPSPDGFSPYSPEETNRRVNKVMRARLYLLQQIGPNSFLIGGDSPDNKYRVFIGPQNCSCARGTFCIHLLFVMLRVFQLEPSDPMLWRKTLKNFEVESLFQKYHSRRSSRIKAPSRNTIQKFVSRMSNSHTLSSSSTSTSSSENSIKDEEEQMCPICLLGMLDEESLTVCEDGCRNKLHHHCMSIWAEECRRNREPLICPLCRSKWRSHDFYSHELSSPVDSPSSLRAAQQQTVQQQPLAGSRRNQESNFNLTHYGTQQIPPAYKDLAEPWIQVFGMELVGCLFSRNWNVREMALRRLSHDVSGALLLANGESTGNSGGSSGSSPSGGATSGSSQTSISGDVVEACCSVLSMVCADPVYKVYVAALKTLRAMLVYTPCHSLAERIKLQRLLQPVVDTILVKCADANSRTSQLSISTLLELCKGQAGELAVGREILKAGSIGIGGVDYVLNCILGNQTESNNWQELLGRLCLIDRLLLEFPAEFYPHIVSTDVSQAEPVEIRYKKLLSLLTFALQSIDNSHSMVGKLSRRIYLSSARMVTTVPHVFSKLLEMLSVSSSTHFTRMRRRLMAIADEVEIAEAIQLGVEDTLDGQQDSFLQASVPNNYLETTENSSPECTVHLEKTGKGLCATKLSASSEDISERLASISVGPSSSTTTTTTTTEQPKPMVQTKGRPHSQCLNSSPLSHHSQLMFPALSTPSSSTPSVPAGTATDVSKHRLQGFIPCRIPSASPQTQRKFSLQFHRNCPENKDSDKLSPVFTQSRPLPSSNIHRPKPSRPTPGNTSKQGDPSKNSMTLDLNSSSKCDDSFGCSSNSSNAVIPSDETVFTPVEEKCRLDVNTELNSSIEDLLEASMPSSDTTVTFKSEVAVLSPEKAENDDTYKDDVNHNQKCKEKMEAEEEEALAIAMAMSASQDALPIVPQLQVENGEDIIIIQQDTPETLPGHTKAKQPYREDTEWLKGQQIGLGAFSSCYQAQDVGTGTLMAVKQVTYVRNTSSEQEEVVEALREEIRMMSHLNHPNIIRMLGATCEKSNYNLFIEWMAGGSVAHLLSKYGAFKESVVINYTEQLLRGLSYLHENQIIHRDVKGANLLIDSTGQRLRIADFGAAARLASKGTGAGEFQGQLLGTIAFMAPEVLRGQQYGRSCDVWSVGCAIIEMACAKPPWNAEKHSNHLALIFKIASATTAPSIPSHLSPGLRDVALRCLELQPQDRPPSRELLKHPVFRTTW

[21] = biological target: Misshapen-like kinase 1 (Homo sapiens) (UniProt Q8N4C8); conditions: Compound concentration 1000.0 nM
[22] = biological target: Serine/threonine-protein kinase OSR1 (Homo sapiens) (UniProt O95747); conditions: Compound concentration 1000.0 nM
[23] = biological target: 3-phosphoinositide-dependent protein kinase 1 (Homo sapiens) (UniProt O15530); conditions: Compound concentration 1000.0 nM
[24] = system: Phosphatidylinositol 4,5-bisphosphate 3-kinase catalytic subunit alpha isoform (Homo sapiens), P42336 [M1043I]; conditions: Compound concentration 1000.0 nM
[25] = biological target: 1-phosphatidylinositol 3-phosphate 5-kinase (Homo sapiens) (UniProt Q9Y2I7); conditions: Compound concentration 1000.0 nM
[26] = biological target: Ribosomal protein S6 kinase alpha-5 (Homo sapiens) (UniProt O75582); conditions: Compound concentration 1000.0 nM
[27] = biological target: Serine/threonine-protein kinase SIK1 (Homo sapiens) (UniProt P57059); conditions: Compound concentration 1000.0 nM
Chain of Serine/threonine-protein kinase SIK1 (Homo sapiens) (P57059 whole entry): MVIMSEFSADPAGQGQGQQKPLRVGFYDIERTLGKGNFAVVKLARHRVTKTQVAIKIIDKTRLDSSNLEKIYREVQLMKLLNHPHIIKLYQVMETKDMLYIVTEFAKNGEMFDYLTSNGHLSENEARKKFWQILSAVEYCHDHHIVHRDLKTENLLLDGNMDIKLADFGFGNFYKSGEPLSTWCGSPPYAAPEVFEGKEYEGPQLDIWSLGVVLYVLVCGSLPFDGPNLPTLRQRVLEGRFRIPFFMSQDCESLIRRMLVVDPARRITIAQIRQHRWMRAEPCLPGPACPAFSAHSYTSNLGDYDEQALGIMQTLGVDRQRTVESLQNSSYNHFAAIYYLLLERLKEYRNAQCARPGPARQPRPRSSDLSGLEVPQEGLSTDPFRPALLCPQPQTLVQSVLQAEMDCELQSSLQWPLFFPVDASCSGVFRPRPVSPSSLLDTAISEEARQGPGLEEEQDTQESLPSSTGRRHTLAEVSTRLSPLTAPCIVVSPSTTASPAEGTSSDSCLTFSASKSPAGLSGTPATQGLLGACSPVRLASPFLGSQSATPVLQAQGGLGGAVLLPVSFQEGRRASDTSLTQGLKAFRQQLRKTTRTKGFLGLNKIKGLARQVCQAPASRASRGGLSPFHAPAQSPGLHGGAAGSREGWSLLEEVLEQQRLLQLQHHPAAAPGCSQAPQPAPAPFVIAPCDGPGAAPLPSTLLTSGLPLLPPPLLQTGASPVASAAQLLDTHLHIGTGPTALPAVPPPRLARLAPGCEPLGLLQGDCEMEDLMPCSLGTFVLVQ

[28] = biological target: Tyrosine-protein kinase TXK (Homo sapiens) (UniProt P42681); conditions: Compound concentration 1000.0 nM
[29] = biological target: Serine/threonine-protein kinase WNK1 (Homo sapiens) (UniProt Q9H4A3); conditions: Compound concentration 1000.0 nM
Chain of Serine/threonine-protein kinase WNK1 (Homo sapiens) (Q9H4A3 whole entry, looked up): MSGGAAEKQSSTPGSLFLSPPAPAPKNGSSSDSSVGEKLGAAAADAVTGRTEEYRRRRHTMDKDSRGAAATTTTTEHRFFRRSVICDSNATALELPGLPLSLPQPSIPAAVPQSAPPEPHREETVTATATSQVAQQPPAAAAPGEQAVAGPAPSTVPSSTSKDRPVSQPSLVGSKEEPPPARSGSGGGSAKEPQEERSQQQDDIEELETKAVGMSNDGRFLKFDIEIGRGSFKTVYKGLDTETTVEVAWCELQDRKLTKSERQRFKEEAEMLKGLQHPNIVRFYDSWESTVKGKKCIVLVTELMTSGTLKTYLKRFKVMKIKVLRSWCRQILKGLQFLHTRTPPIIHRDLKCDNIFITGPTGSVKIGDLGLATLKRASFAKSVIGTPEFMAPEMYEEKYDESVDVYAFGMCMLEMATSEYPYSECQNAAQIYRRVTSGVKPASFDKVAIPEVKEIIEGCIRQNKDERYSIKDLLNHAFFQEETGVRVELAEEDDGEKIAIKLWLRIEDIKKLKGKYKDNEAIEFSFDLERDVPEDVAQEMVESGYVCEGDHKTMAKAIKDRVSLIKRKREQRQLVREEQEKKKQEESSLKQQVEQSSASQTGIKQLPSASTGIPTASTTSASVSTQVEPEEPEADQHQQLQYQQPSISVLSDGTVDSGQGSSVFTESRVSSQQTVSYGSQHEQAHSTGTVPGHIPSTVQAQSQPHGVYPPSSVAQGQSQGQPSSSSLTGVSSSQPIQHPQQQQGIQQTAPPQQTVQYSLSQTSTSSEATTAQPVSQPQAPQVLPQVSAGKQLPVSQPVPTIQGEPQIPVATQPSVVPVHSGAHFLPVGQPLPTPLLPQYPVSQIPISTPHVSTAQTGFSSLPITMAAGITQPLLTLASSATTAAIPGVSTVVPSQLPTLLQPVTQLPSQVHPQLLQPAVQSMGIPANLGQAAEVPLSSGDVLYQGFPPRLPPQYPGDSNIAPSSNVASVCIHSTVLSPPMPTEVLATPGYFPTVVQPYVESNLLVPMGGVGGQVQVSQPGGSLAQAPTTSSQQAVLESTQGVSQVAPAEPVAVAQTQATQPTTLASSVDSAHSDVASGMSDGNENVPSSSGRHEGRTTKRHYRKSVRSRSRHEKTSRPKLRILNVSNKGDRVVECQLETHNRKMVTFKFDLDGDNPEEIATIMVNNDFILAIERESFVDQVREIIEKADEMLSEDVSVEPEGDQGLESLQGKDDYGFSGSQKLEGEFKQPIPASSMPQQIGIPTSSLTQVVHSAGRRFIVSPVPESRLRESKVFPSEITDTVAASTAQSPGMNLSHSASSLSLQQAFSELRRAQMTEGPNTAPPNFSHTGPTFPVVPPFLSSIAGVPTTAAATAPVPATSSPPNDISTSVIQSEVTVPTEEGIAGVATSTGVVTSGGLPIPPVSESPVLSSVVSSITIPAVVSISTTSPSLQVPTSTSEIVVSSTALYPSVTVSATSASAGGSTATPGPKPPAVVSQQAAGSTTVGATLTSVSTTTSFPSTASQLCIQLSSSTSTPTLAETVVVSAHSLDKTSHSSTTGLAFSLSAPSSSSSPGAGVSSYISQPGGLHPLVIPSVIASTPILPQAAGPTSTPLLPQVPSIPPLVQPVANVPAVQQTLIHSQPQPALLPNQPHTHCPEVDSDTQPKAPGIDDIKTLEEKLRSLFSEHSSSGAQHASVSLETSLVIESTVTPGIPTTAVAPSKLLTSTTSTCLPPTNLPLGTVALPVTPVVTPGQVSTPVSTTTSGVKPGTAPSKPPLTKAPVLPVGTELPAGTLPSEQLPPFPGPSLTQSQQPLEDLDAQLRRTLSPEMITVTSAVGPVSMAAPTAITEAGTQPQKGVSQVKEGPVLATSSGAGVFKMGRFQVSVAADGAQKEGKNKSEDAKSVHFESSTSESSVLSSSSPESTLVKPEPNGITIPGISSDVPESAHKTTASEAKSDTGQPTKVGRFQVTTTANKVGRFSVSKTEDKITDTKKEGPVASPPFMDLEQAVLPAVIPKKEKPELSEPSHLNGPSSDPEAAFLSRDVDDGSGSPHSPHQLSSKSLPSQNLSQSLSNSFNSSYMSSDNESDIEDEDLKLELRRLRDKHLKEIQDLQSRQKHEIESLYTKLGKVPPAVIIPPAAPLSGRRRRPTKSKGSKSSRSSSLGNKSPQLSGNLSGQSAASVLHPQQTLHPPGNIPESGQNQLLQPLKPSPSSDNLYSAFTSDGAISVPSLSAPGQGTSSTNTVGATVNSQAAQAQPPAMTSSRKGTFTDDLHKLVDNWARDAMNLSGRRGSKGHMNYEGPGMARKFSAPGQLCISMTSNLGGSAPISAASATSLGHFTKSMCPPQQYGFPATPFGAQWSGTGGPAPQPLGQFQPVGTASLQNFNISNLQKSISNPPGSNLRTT

[30] = biological target: T2, Alpha-1B adrenergic receptor (Homo sapiens); conditions: Compound concentration 10.0 uM
[31] = biological target: Beta-1 adrenergic receptor (Homo sapiens) (UniProt P08588); conditions: Compound concentration 10.0 uM

CNC(=O)Nc1ccc2c(c1)CC[C@@]21OC(=O)N(CC(=O)N(Cc2ccc(F)cc2)[C@@H](C)C(F)(F)F)C1=O [A-485]
inactive: inhibition [1] 29% | inhibition [2] 4% | residual activity [3] 71% | residual activity [4] 90% | residual activity [5] 72% | residual activity [6] 81% | residual activity [7] 91% | residual activity [8] 100% | residual activity [9] 90% | residual activity [10] 99% | residual activity [11] 93% | residual activity [12] 94% | residual activity [13] 97% | residual activity [14] 82% | residual activity [15] 86% | residual activity [16] 84% | residual activity [17] 97% | residual activity [18] 51% | residual activity [19] 100% | residual activity [20] 68% | residual activity [21] 95% | residual activity [22] 80% | residual activity [23] 88% | residual activity [24] 100% | residual activity [25] 58% | residual activity [26] 63% | residual activity [27] 98% | residual activity [28] 78% | residual activity [29] 93% | inhibition [30] 1.93% | inhibition [31] -5.22%

CNC(=O)Nc1ccc2c(c1)[C@@]1(CC2)OC(=O)N(CC(=O)N(Cc2ccc(F)cc2)[C@@H](C)C(F)(F)F)C1=O [A-486]
inactive: inhibition [1] 16% | inhibition [2] -6% | residual activity [3] 78% | residual activity [4] 67% | residual activity [5] 99% | residual activity [6] 100% | residual activity [7] 75% | residual activity [8] 96% | residual activity [9] 78% | residual activity [10] 98% | residual activity [11] 83% | residual activity [12] 100% | residual activity [13] 100% | residual activity [14] 84% | residual activity [15] 99% | residual activity [16] 87% | residual activity [17] 100% | residual activity [18] 75% | residual activity [19] 100% | residual activity [20] 95% | residual activity [21] 78% | residual activity [22] 65% | residual activity [23] 85% | residual activity [24] 100% | residual activity [25] 72% | residual activity [26] 72% | residual activity [27] 90% | residual activity [28] 100% | residual activity [29] 79% | inhibition [30] -1.33% | inhibition [31] -4.4%
